Consider six compounds from US11224561B2, “Skin cleansing composition” (KAO CORPORATION, priority 2017, dated 2022).

A short description of data set [1]: Detergency against keratotic plug during cleansing: penetration of the sample into keratotic plugs. More on the design: species or system human. Conditions: samples of Table 1, contact for 1 minute. As for the experimental part: Keratotic plugs in the nasal region were removed with “Biore Nose Pack (manufactured by Kao Corporation)”, the resulting keratotic plugs on the pack were gently taken out with tweezers. […] Consequently, the sample entered into the gap between the slide glass and the cover glass by capillary phenomenon and was brought into contact with the keratotic plugs. The contact of the keratotic plugs and the sample was recorded with a digital microscope (VHX-5000, manufactured by Keyence Corporation, magnification: 150×), and the penetration of the sample into the keratotic plugs and the collapse state of the keratotic plugs were evaluated after one minute from the contact of the keratotic plugs with the sample. The results of each evaluation are shown in the columns “Keratotic plug detergency (penetration)” and “Keratotic plug detergency (during cleansing)” in Tables. The measurements were performed at 25° C. The penetration was relatively evaluated by criteria with 11 ratings from the rating 1 “the sample hardly penetrated into the keratotic plug” to the rating 11 “the sample penetrated to the center of the keratotic plug”. The collapsibility by the detergency against keratotic plug was relatively evaluated by criteria with 11 ratings from the rating 1 “almost no change is observed in the external appearance of the keratotic plug” to the rating 11 “peeling or separation is observed in the area from the surface layer to the central portion of the keratotic plug (the initial appearance of the keratotic plug is not retained)”.

Data set [2] in a line: Detergency against keratotic plug after washing with water: collapse state. Also noted: species or system human. Conditions: samples of Table 1, washing with water. From the text:
The penetration was relatively evaluated by criteria with 11 ratings from the rating 1 “the sample hardly penetrated into the keratotic plug” to the rating 11 “the sample penetrated to the center of the keratotic plug”. The collapsibility by the detergency against keratotic plug was relatively evaluated by criteria with 11 ratings from the rating 1 “almost no change is observed in the external appearance of the keratotic plug” to the rating 11 “peeling or separation is observed in the area from the surface layer to the central portion of the keratotic plug (the initial appearance of the keratotic plug is not retained)”. After one minute from the contact of the keratotic plugs with the sample, Kimwipes (registered trademark) was brought into contact with an edge of the cover glass to remove the sample under the cover glass. […] The results of the evaluation are shown in the column “Keratotic plug detergency (during washing with water)” in Table. The measurements were performed at 25° C.

For data set [3] the following is noted: at 25° C.; cited from earlier work.
Data set [4] is described as follows: Detergency against keratotic plug during cleansing: collapse state of keratotic plugs. The conditions noted are these: samples of Table 1, contact for 1 minute. More on the design: species or system human. The method, then:
Keratotic plugs in the nasal region were removed with “Biore Nose Pack (manufactured by Kao Corporation)”, the resulting keratotic plugs on the pack were gently taken out with tweezers.
The resulting keratotic plugs were placed on a slide glass and were covered with a cover glass, and 0.05 mL of a sample was dropwise added to an edge of the cover glass. Consequently, the sample entered into the gap between the slide glass and the cover glass by capillary phenomenon and was brought into contact with the keratotic plugs. The contact of the keratotic plugs and the sample was recorded with a digital microscope (VHX-5000, manufactured by Keyence Corporation, magnification: 150×), and the penetration of the sample into the keratotic plugs and the collapse state of the keratotic plugs were evaluated after one minute from the contact of the keratotic plugs with the sample. The results of each evaluation are shown in the columns “Keratotic plug detergency (penetration)” and “Keratotic plug detergency (during cleansing)” in Tables. The measurements were performed at 25° C.
The penetration was relatively evaluated by criteria with 11 ratings from the rating 1 “the sample hardly penetrated into the keratotic plug” to the rating 11 “the sample penetrated to the center of the keratotic plug”. The collapsibility by the detergency against keratotic plug was relatively evaluated by criteria with 11 ratings from the rating 1 “almost no change is observed in the external appearance of the keratotic plug” to the rating 11 “peeling or separation is observed in the area from the surface layer to the central portion of the keratotic plug (the initial appearance of the keratotic plug is not retained)”.

In data set [5] the test system is insoluble protein (seine protein). The experiment in a line: Effect of suppressing protein aggregation (precipitation of insoluble protein). Conditions: sample of Table 1. The method, then:
Thirty milliliters of a sample and 0.06 g of an insoluble protein (seine protein) were placed in a 35-mL standard glass bottle, and the concentration of the insoluble protein was adjusted to 0.2 mass % (test sample). Separately, a standard sample was prepared by using water instead of the sample and adjusting the concentration of the insoluble protein to 0.2 mass %. Subsequently, the standard glass bottles were sufficiently shaken and stirred up and down (shake width: 15 cm, 20 times at a rate of 5 times for 3 seconds) in a thermostatic chamber of 25° C. and were left to stand for 3 minutes. The precipitation state of the insoluble protein was then visually verified, and the ratio of the amount of the precipitated standard sample to the amount of the precipitated test sample (the height of the precipitate in each standard glass bottle was measured as the precipitation amount), (precipitation amount of standard sample)/(precipitation amount of test sample), was calculated. A higher ratio indicates a higher effect of suppressing protein aggregation.

`CC(N)(CO)CO` [AMPD, 2-amino-2-methyl-1,3-propanediol]: the “penetration of the sample into keratotic plugs (in words)” value (“penetration” below) in data set [1] is given as “penetrated into keratotic plugs”. Further, the “swelling of sample-treated keratotic plugs on contact with water (in words)” value (“swelling” for short) in data set [2] is given as “swelled when contacted with water”.
Turning to `CC(C)(N)CO` [Component (X3)], the pKa – broadly, the pH at which an ionisable group is half protonated – in data set [3] is on record as 9.72.
Consider `O=P([O-])([O-])O.[Na+].[Na+]` [disodium hydrogen phosphate], for which the “penetration” value in data set [1] is recorded as “hardly penetrated into keratotic plugs”. Moreover, the “swelling” value in data set [2] is “did not swell even when contacted with water”. In addition, the “collapse of keratotic plugs in contact with the sample (in words)” value (shortened to “collapse of keratotic plugs in contact”) in data set [4] is reported as “the collapse of the keratotic plugs did not progress”.
`O=C([O-])O.[Na+]` [sodium hydrogen carbonate]: in data set [1], the “penetration” value is “hardly penetrated into keratotic plugs”. The “swelling” value in data set [2] is reported as “did not swell even when contacted with water”. In addition, the “collapse of keratotic plugs in contact” value in data set [4] is listed as “the collapse of the keratotic plugs did not progress”.
Turning to `O=P([O-])([O-])[O-].[Na+].[Na+].[Na+]` [trisodium phosphate], the “penetration” value in data set [1] is recorded as “hardly penetrated into keratotic plugs”. In data set [2], the “swelling” value is given as “did not swell even when contacted with water”. Moreover, the “collapse of keratotic plugs in contact” value in data set [4] is “the collapse of the keratotic plugs did not progress”.
Turning to “sodium polyoxyethylene (2) lauryl ether sulfate [POE (2) sodium lauryl sulfate]”, in data set [1], the “penetration” value is “hardly penetrated into the keratotic plugs”. Besides, the “action on proteins (in words)” value in data set [5] was “the action on proteins was strong to dissolve the proteins”. Moreover, the “collapse of keratotic plugs in contact” value in data set [4] is on record as “the collapse of the keratotic plugs did not progress”.
